{"source": "patent US20140357512A1", "about": "“HISTONE DEACETYLASE (HDAC) BIOMARKERS IN MULTIPLE MYELOMA” (priority 2013, published 2014)", "tested_on": "human myeloma cell line MM.1S", "assay": "SILAC acetylated-lysine peptide profiling, HDAC inhibitor vs DMSO (light/heavy ratio)", "format": "cell-based", "text": "An embodiment of the invention comprises utilizing the SILAC method in order to quantitate changes in protein expression between two or more populations of cells. The SILAC method is a technique based on mass spectrometry that detects differences in protein abundance among samples using non-radioactive isotopic labeling. The SILAC method is known in the art, and described in detail in Ong et al., “Stable Isotope Labeling by Amino Acids in Cell Culture, SILAC, as a Simple and Accurate Approach to Expression Proteomics”, Molecular & Cellular Proteomics, vol. 1, pp. 376-386 (2002), which is incorporated herein by reference in its entirety.\nBriefly, the SILAC method involves growing two populations of cells in cell culture. The first population of cells is grown in growth media containing normal amino acids (“normal media”). The second population of cells is grown in media lacking a standard essential amino acid (such as lysine), but is then supplemented with a non-radioactive, isotopically labeled form of that essential amino acid (such as lysine labeled with ^13C atoms, rather than normal ^12C atoms), which is called “heavy media”. When the two populations of cells are each growing in the medium, they incorporate the amino acids into all of their proteins. The growth of cells maintained in the heavy media is no different from that in normal media. All peptides containing the heavy amino acids are heavier than their normal counterparts. The cells from each of the two populations of cells are lysed. The lysates from each of the two cell populations are then combined. The combined cell lysates are then analyzed by mass spectrometry. Pairs of chemically identical peptides of different stable isotope composition can be differentiated in a mass spectrometer due to their difference in mass. The ratio of peak intensities in the mass spectrum for such peptide pairs reflects the abundance ratio for the two proteins.\nThis example describes SILAC studies that were performed to compare the effects of three different HDAC inhibitors (Compound A, Compound B, and tubastatin A) to a control on a human multiple myeloma cell line. The HDAC inhibitors were also compared amongst themselves to determine differences in their effects.\nA human myeloma cell line MM.1S was grown using either ^12C (light) or ^13C (heavy) lysine containing culture medium. The “heavy” cells were treated with DMSO as the control, and the “light” cells were treated with a single HDAC inhibitor at 37° C. for 6 hours. The heavy and light cells were lysed, and the lysates were mixed in 1:1 ratio and digested with the protease trypsin. The acetylated lysine containing peptides (due to the action of the HDAC inhibitor) in the digested peptide pool were captured by a non-specific anti-acetylated lysine antibody cocktail (the antibodies identify both light and heavy acetylated peptides), and subjected to mass spectrometry analysis in order to identify thousands of individual peptides.\nThousands of peptides were identified in pairs (^12C and ^13C) due to their known mass differences. The amino acid sequence and quantitative ratio (Light/Heavy) of a given peptide in two differentially treated cell lysates were then determined and annotated with their possible protein (gene) sources.\nAs stated above, three HDAC inhibitors (Compound A, Compound B, and Tubastatin A) were used. Thus, the SILAC method was performed three times, with a different HDAC inhibitor compared to a control each time. Accordingly, there are three pairs of quantitative data in the table below, i.e., Compound A:DMSO, Compound B:DMSO, and Tubastatin A:DMSO. A cut-off of 1.30 fold of change (increase or decrease) was then used to determine “changed” or “+” in the table, and any peptides with a fold of change less than 1.3 fold were determined to be “unchanged” or “0” in the table. Those peptides that were not identified were marked as “NA” in the table. […]", "data": [{"smiles": "O=C(CCCCCCNC(=O)c1cnc(N(c2ccccc2)c2ccccc2)nc1)NO", "note": "[Compound A, 2-(diphenylamino)-N-(7-(hydroxyamino)-7-oxoheptyl)pyrimidine-5-carboxamide]", "values": [{"measurement": "light to heavy ratio (L/H ratio) of acetylated peptide GAGTDEK(ac)TLTR (SEQ ID NO: 621)", "setting": "Annexin A6 [620], gene ANXA6, inhibitor:DMSO", "result": 0.48, "unit": "log 2"}, {"measurement": "light to heavy ratio (L/H ratio), log 2 scale, acetylated peptide EFIEK(ac)YDK (SEQ ID NO: 779)", "setting": "Annexin A6 [644], gene ANXA6, drug:DMSO", "result": 1.00}, {"measurement": "light to heavy ratio (L/H ratio) of acetylated peptide DDNGK(ac)PYVLPSVR (SEQ ID NO: 579)", "setting": "Aspartate aminotransferase mitochondrial [73], gene GOT2, inhibitor:DMSO", "result": 0.43, "unit": "log 2"}, {"measurement": "light to heavy ratio (L/H ratio) of acetylated peptide LMEK(ac)EINGSK (SEQ ID NO: 517)", "setting": "Atlastin-3 [309], gene ATL3, inhibitor:DMSO", "result": "−0.56", "unit": "log 2"}, {"measurement": "light to heavy ratio (L/H ratio) of acetylated peptide ELK(ac)EIQYGIR (SEQ ID NO: 540)", "setting": "Branched-chain-amino-acid aminotransferase [337], gene BCAT2, inhibitor:DMSO", "result": 0.39, "unit": "log 2"}, {"measurement": "light to heavy ratio (L/H ratio), log 2 scale, acetylated peptide ESCSK(ac)[…] (SEQ ID NO: 780)", "setting": "Bromodomain and PHD finger-containing protein 3 [105], gene BRPF3, drug:DMSO", "result": 1.00}, {"measurement": "L/H ratio of acetylated peptide FYGDEEK(ac)[…] (SEQ ID NO: 25)", "setting": "CALR [62], log 2 scale, drug vs DMSO", "result": 0.00}, {"measurement": "light to heavy ratio (L/H ratio) of acetylated peptide LQVLDPVPK(ac)PVIK (SEQ ID NO: 539)", "setting": "CD48 antigen [133], gene CD48, inhibitor:DMSO", "result": 0.39, "unit": "log 2"}, {"measurement": "light to heavy ratio (L/H ratio) of acetylated peptide AGLQVYNK(ac)CWK (SEQ ID NO: 260)", "setting": "CD59 glycoprotein [63], CD59, drug:DMSO", "result": 0.41, "unit": "log 2"}, {"measurement": "L/H ratio of acetylated peptide […](ac)R (SEQ ID NO: 26)", "setting": "CLTC [637], log 2 scale, drug vs DMSO", "result": 0.00}, {"measurement": "L/H ratio of acetylated peptide FK(ac)ESFAEMNR (SEQ ID NO: 1)", "setting": "COX4I1 [87], log 2 scale, drug vs DMSO", "result": 0.00}, {"measurement": "L/H ratio of acetylated peptide […](ac)QLCTIPR (SEQ ID NO: 27)", "setting": "CREBBP [1216], log 2 scale, drug vs DMSO", "result": 0.00}, {"measurement": "L/H ratio of acetylated peptide TNK(ac)NK(ac)SSISR (SEQ ID NO: 13)", "setting": "CREBBP [1595:1597], log 2 scale, drug vs DMSO", "result": 1.00}, {"measurement": "L/H ratio of acetylated peptide ALK(ac)DLYCHK (SEQ ID NO: 28)", "setting": "CREM [240], log 2 scale, drug vs DMSO", "result": 0.00}, {"measurement": "L/H ratio of acetylated peptide LYCPK(ac)CMDVYTPK (SEQ ID NO: 29)", "setting": "CSNK2B [139], log 2 scale, drug vs DMSO", "result": 0.00}, {"measurement": "light to heavy ratio (L/H ratio) of acetylated peptide NSFDCFK(ac)K (SEQ ID NO: 605)", "setting": "Calcium-binding mitochondrial carrier protein Aralar2 [379], gene SLC25A13, inhibitor:DMSO", "result": 0.46, "unit": "log 2"}, {"measurement": "light to heavy ratio (L/H ratio) of acetylated peptide FVLSSGK(ac)FYGDEEKDK (SEQ ID NO: 281)", "setting": "Calreticulin [55], CALR, drug:DMSO", "result": 0.58, "unit": "log 2"}, {"measurement": "light to heavy ratio (L/H ratio) of acetylated peptide VHVIFNYK(ac)GK (SEQ ID NO: 273)", "setting": "Calreticulin [151], CALR, drug:DMSO", "result": 0.48, "unit": "log 2"}, {"measurement": "light to heavy ratio (L/H ratio) of acetylated peptide NVLINK(ac)DIR (SEQ ID NO: 257)", "setting": "Calreticulin [159], CALR, drug:DMSO", "result": 0.39, "unit": "log 2"}, {"measurement": "light to heavy ratio (L/H ratio) of acetylated peptide TCDLVGEK(ac)GK (SEQ ID NO: 289)", "setting": "Cation-dependent mannose-6-phosphate receptor [38], M6PR, drug:DMSO", "result": 0.65, "unit": "log 2"}, {"measurement": "light to heavy ratio (L/H ratio) of acetylated peptide […](ac)GLLK (SEQ ID NO: 569)", "setting": "Chloride intracellular channel protein 1 [131], gene CLIC1, inhibitor:DMSO", "result": 0.41, "unit": "log 2"}, {"measurement": "light to heavy ratio (L/H ratio), log 2 scale, acetylated peptide GFSIPECQK(ac)LLPK (SEQ ID NO: 783)", "setting": "Citrate synthase mitochondrial [103], gene CS, drug:DMSO", "result": 1.00}, {"measurement": "light to heavy ratio (L/H ratio) of acetylated peptide […](ac)LR (SEQ ID NO: 566)", "setting": "Citrate synthase mitochondrial [327], gene CS, inhibitor:DMSO", "result": 0.41, "unit": "log 2"}, {"measurement": "light to heavy ratio (L/H ratio) of acetylated peptide EFALK(ac)HLPNDPMFK (SEQ ID NO: 583)", "setting": "Citrate synthase mitochondrial [366], gene CS, inhibitor:DMSO", "result": 0.43, "unit": "log 2"}, {"measurement": "light to heavy ratio (L/H ratio) of acetylated peptide SMSTEGLMK(ac)FVDSK (SEQ ID NO: 330)", "setting": "Citrate synthase mitochondrial [459], CS, drug:DMSO", "result": 0.00, "unit": "log 2"}, {"measurement": "light to heavy ratio (L/H ratio) of acetylated peptide VASK(ac)QLEEEDGSR (SEQ ID NO: 591)", "setting": "Coatomer subunit gamma [238], gene COPG, inhibitor:DMSO", "result": 0.44, "unit": "log 2"}, {"measurement": "light to heavy ratio (L/H ratio), log 2 scale, acetylated peptide MIYASSK(ac)DAIKK (SEQ ID NO: 763)", "setting": "Cofilin-1 [121], gene CFL1, drug:DMSO", "result": 0.93}, {"measurement": "light to heavy ratio (L/H ratio) of acetylated peptide AAEEVEAK(ac)FK (SEQ ID NO: 328)", "setting": "Coiled-coil-helix-coiled-coil-helix domain-containing protein 3 mitochondrial [173], CHCHD3, drug:DMSO", "result": 0.00, "unit": "log 2"}, {"measurement": "light to heavy ratio (L/H ratio) of acetylated peptide ASEIGEK(ac)YR (SEQ ID NO: 586)", "setting": "Conserved hypothetical protein [484], gene KIAA0947, inhibitor:DMSO", "result": 0.44, "unit": "log 2"}, {"measurement": "light to heavy ratio (L/H ratio) of acetylated peptide DHCVAHK(ac)LFNNLK (SEQ ID NO: 608)", "setting": "Cytochrome b-c1 complex subunit 6 mitochondrial [85], gene UQCRH, inhibitor:DMSO", "result": 0.46, "unit": "log 2"}, {"measurement": "light to heavy ratio (L/H ratio) of acetylated peptide LFDYFPK(ac)PYPNSEAAR (SEQ ID NO: 548)", "setting": "Cytochrome c1 heme protein mitochondrial [177], gene CYC1, inhibitor:DMSO", "result": 0.39, "unit": "log 2"}, {"measurement": "light to heavy ratio (L/H ratio) of acetylated peptide YFDEK(ac)IAK (SEQ ID NO: 563)", "setting": "D-beta-hydroxybutyrate dehydrogenase mitochondrial [280], gene BDH1, inhibitor:DMSO", "result": 0.41, "unit": "log 2"}, {"measurement": "L/H ratio of acetylated peptide FK(ac)[…] (SEQ ID NO: 30)", "setting": "DAZAP1 [59], log 2 scale, drug vs DMSO", "result": 0.00}, {"measurement": "L/H ratio of acetylated peptide APTIVGK(ac)SSLNPILFR (SEQ ID NO: 31)", "setting": "DDOST [189], log 2 scale, drug vs DMSO", "result": 0.00}, {"measurement": "L/H ratio of acetylated peptide FGNPGEK(ac)LVK (SEQ ID NO: 34)", "setting": "DDX5 [40], log 2 scale, drug vs DMSO", "result": 0.00}]}]}
